Source: patent US20220411439A1, “POLYMORPHS OF A MACROCYCLIC KINASE INHIBITOR” (TURNING POINT THERAPEUTICS, INC., priority 2019, published 2022)
Read-outs that look alike come from different tables or passages of the source.

How the values were obtained:
[1] = molecular target: T1, Ba/F3 KIF5B-RET G810C (Homo sapiens, UniProt P07949, G810C); assay: RET-G810C autophosphorylation (Y905) by immunoblotting in Ba/F3 engineered cells; type: cell-based; conditions: 4 hours incubation, read-out: IC50, RET-G810C phosphorylation at residue Y905
T1 construct: KIF5B fragment (fusion partner); expressed in transfected cells; host or cells: Ba/F3 cells, lentiviral transduction (pCDH-CMV-MCS-EF1-Puro); the other entry of the earlier key: KIF5B (P33176, Kinesin-1 heavy chain)

[2] = tested on: KM12 cell (TPM3-TRKA); assay: Cell proliferation assay (CellTiter-Glo); type: cell-based; conditions: Homo sapiens, anti-cell proliferation, 72 hours
Procedure: (§1) Human medulla thyroid carcinoma cell line TT (containing RET M918T mutation) and acute myelogenous cell line KG-1 were purchased from ATCC. Human colon cancer cell line KM12 (containing TPM3-TRKA) was obtained from NCI. Two thousand cells per well were seeded in 384 well white plate for 24 hrs, and then treated with compounds for 72 hours (37° C., 5% CO2). Cell proliferation was measured using CellTiter-Glo luciferase-based ATP detection assay (Promega) following the manufactures's protocol. IC50 determinations were performed using GraphPad Prism software (GraphPad, Inc., San Diego, Calif.).

[3] = tested on: TT cell (RET M918T); assay: Cell proliferation assay (CellTiter-Glo); type: cell-based; conditions: Homo sapiens, anti-cell proliferation, 72 hours
Procedure: as §1

[4] = tested on: KG-1; assay: Cell proliferation assay (CellTiter-Glo); type: cell-based; conditions: Homo sapiens, anti-cell proliferation, 72 hours
Procedure: as §1

[5] = molecular target: T2, Ba/F3 EML4-ALK (Homo sapiens, UniProt Q9UM73); assay: Cell proliferation assay (CellTiter-Glo); type: cell-based; conditions: anti-cell proliferation, 72 hours
T2 construct: fused on or other part: Q9HC35 (Echinoderm microtubule-associated protein-like 4)
Procedure: The EML4-ALK gene (variant 1) was synthesized at GenScript and cloned into pCDH-CMV-MCS-EF1-Puro plasmid (System Biosciences, Inc). Ba/F3-EML4-ALK wild type were generated by transducing Ba/F3 cells with lentivirus containing EML4-ALK wide type. Stable cell lines were selected by puromycin treatment, followed by IL-3 withdrawal. Briefly, 5×10^6 Ba/F3 cells were transduced with lentivirus supernatant in the presence of 8 μg/mL protamine sulfate. The transduced cells were subsequently selected with 1 μg/mL puromycin in the presence of IL3-containing medium RPMI1640, plus 10% FBS. After 10-12 days of selection, the surviving cells were further selected for IL3 independent growth.
(§2) Two thousand cells per well were seeded in 384 well white plate for 24 hrs, and then treated with compounds for 72 hours (37° C., 5% CO2). Cell proliferation was measured using CellTiter-Glo luciferase-based ATP detection assay (Promega) following the manufactures's protocol. IC50 determinations were performed using GraphPad Prism software (GraphPad, Inc., San Diego, Calif.).

[6] = molecular target: T3, LYN (Homo sapiens, UniProt P07948); assay: Biochemical kinase assay; conditions: 10 μM ATP
T3 construct: purchased Reaction Biology Corporation (contract assay)
Procedure: (§3) Specific kinase/substrate pairs along with required cofactors were prepared in reaction buffer; 20 mM Hepes pH 7.5, 10 mM MgCl2, 1 mM EGTA, 0.02% Brij35, 0.02 mg/ml BSA, 0.1 mM Na3VO4, 2 mM DTT, 1% DMSO. Compounds were delivered into the reaction, followed ˜20 minutes later by addition of a mixture of ATP (Sigma, St. Louis Mo.) and ^33P ATP (Perkin Elmer, Waltham Mass.) to a final concentration of 10 μM. Reactions were carried out at room temperature for 120 min, followed by spotting of the reactions onto P81 ion exchange filter paper (Whatman Inc., Piscataway, N.J.). Unbound phosphate was removed by extensive washing of filters in 0.75% phosphoric acid. […] IC50 values and curve fits were obtained using Prism (GraphPad Software).

[7] = molecular target: T4, YES/YES1 (Homo sapiens, UniProt P07947); assay: Biochemical kinase assay; conditions: 10 μM ATP
T4 construct: purchased Reaction Biology Corporation (contract assay)
Procedure: as §3

[8] = molecular target: T5, RET (Homo sapiens, UniProt P07949); assay: Biochemical kinase assay; conditions: 10 μM ATP
T5 construct: purchased Reaction Biology Corporation (contract assay)
Procedure: as §3

[9] = molecular target: T6, HCK (Homo sapiens, UniProt P08631); assay: Biochemical kinase assay; conditions: 10 μM ATP
T6 construct: purchased Reaction Biology Corporation (contract assay)
Procedure: as §3

[10] = molecular target: T7, SRC (Homo sapiens, UniProt P12931); assay: Biochemical kinase assay; conditions: 10 μM ATP
T7 construct: purchased Reaction Biology Corporation (contract assay)
Procedure: as §3

[11] = molecular target: T8, FYN (Homo sapiens, UniProt P06241); assay: Biochemical kinase assay; conditions: 10 μM ATP
T8 construct: purchased Reaction Biology Corporation (contract assay)
Procedure: as §3

[12] = molecular target: T9, RET-NCOA4 (PTC3) (Homo sapiens, UniProt P07949); assay: Biochemical kinase assay; conditions: 10 μM ATP
T9 construct: NCOA4 fragment (fusion partner); purchased Reaction Biology Corporation (contract assay)
Procedure: as §3

[13] = molecular target: T10, Ba/F3 KIF5B-RET (Homo sapiens, UniProt P07949, cells depend on it, form not given); assay: Compound I anti-cell proliferation comparison (FIG. 5A, 5B); type: cell-based; conditions: for GI50: read-out: IC50 (the source's name)
T10 construct: IC50 (nM); other: Experiment 1; other: Experiment 2; fused on or other part: P33176 (Kinesin-1 heavy chain)
Source text: The KIF5B-RET gene was synthesized at GenScript and cloned into pCDH-CMV-MCS-EF1-Puro plasmid (System Biosciences, Inc). KIF5B-RET point mutation V804M and G810C were generated at GenScript by PCR and confirmed by sequencing. Ba/F3-KIF5B-RET wild type and mutant were generated by transducing Ba/F3 cells with lentivirus containing KIF5B-RET wide type or mutant. Stable cell lines were selected by puromycin treatment, followed by IL-3 withdrawal. Briefly, 5×10^6 Ba/F3 cells were transduced with lentivirus supernatant in the presence of 8 μg/mL protamine sulfate. The transduced cells were subsequently selected with 1 μg/mL puromycin in the presence of IL3-containing medium RPMI1640, plus 10% FBS. After 10-12 days of selection, the surviving cells were further selected for […] independent growth.
as §2

[14] = molecular target: T11, RET (V804M) (Homo sapiens, UniProt P07949, V804M); assay: Biochemical kinase assay; conditions: 10 μM ATP
T11 construct: purchased Reaction Biology Corporation (contract assay)
Procedure: as §3, with “The biochemical kinase assay was performed at Reaction Biology Corporation (www.reactionbiology.com, Malvern, Pa.) following the procedures described in the reference (Anastassiadis T, et al Nat Biotechnol. 2011, 29, 1039). Specific” for “Specific”

T10 sequence (P07949 whole entry G810C, form open, the tested form may be a part): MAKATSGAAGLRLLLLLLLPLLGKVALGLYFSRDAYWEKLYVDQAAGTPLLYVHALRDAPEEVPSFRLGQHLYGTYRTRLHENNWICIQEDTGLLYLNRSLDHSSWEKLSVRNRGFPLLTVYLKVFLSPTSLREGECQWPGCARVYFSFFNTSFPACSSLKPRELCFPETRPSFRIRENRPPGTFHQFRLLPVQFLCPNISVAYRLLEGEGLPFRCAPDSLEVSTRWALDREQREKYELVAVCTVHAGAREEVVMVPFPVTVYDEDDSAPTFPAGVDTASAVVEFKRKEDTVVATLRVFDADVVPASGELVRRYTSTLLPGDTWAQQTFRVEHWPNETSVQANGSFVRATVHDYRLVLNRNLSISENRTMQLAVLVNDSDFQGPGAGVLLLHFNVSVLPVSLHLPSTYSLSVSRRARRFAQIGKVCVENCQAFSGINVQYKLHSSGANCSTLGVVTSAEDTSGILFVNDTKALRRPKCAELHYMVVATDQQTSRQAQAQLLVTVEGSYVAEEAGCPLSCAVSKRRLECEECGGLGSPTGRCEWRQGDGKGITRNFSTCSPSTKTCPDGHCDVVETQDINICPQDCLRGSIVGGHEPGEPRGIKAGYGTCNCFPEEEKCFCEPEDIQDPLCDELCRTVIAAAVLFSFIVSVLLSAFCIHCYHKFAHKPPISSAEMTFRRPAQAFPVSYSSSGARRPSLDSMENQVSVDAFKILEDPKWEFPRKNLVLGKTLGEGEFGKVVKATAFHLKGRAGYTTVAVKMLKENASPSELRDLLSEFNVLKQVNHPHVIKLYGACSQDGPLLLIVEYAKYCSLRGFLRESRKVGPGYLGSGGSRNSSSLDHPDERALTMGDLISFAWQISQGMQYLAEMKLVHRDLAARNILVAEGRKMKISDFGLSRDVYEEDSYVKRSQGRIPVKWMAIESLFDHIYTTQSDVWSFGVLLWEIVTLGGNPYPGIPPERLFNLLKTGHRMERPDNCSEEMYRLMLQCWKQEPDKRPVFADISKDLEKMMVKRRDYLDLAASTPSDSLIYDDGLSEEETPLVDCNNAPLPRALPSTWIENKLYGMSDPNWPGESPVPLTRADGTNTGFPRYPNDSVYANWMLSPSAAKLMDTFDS
T3 sequence (P07948 whole entry): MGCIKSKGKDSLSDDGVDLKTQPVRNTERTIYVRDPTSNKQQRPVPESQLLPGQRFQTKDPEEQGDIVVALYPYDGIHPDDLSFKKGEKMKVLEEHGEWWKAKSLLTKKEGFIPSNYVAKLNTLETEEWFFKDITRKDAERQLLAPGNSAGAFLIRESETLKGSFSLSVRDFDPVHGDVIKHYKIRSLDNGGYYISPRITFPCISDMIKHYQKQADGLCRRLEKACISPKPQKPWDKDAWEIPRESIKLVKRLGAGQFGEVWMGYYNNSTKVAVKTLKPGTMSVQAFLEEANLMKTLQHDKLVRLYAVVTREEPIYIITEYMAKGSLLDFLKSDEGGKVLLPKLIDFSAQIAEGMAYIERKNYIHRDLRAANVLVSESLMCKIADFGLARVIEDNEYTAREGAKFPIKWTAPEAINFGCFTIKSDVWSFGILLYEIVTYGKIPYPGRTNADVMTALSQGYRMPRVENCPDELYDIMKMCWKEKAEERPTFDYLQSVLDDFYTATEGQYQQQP
T2 sequence (Q9UM73 whole entry, change not shown, the tested form may be a part): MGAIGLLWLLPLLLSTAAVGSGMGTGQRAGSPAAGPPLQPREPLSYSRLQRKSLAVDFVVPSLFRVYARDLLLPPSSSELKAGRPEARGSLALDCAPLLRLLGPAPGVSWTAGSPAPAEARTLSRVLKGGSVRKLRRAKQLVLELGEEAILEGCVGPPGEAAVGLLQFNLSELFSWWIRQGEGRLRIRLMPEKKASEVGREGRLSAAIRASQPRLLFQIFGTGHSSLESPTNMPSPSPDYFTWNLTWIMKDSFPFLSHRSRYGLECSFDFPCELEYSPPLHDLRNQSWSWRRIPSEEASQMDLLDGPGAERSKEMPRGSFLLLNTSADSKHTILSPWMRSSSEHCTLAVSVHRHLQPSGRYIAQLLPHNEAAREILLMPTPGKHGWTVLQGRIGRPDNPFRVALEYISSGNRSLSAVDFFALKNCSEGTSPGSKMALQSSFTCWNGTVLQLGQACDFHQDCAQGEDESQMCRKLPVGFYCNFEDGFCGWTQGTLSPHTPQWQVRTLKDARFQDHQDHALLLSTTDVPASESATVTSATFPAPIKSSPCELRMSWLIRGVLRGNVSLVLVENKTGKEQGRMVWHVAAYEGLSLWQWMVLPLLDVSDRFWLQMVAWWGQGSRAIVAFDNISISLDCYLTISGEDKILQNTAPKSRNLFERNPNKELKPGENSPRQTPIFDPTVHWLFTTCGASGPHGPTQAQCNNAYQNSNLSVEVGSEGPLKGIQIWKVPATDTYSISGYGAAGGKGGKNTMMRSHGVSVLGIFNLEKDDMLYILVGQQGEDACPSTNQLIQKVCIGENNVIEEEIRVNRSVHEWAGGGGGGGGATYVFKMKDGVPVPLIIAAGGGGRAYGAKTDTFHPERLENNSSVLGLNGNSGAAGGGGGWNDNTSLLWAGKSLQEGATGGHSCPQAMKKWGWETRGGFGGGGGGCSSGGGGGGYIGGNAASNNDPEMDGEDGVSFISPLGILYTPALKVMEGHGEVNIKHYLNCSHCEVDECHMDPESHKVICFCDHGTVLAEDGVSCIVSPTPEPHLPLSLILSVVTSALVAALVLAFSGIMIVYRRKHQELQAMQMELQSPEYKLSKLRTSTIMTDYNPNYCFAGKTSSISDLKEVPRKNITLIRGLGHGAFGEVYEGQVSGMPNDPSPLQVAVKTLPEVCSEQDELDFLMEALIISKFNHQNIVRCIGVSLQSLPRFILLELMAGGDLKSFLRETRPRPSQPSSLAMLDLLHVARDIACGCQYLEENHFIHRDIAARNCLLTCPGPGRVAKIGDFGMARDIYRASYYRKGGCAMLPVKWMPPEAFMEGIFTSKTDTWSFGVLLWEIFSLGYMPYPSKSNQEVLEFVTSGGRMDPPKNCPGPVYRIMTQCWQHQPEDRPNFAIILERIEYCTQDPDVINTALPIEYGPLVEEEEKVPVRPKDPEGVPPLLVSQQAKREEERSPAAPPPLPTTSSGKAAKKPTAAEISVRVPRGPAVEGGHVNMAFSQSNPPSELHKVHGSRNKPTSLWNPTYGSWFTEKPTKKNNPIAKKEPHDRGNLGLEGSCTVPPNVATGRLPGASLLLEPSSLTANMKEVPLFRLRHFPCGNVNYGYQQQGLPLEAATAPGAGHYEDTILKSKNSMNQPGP
T5 sequence (P07949 29-1114): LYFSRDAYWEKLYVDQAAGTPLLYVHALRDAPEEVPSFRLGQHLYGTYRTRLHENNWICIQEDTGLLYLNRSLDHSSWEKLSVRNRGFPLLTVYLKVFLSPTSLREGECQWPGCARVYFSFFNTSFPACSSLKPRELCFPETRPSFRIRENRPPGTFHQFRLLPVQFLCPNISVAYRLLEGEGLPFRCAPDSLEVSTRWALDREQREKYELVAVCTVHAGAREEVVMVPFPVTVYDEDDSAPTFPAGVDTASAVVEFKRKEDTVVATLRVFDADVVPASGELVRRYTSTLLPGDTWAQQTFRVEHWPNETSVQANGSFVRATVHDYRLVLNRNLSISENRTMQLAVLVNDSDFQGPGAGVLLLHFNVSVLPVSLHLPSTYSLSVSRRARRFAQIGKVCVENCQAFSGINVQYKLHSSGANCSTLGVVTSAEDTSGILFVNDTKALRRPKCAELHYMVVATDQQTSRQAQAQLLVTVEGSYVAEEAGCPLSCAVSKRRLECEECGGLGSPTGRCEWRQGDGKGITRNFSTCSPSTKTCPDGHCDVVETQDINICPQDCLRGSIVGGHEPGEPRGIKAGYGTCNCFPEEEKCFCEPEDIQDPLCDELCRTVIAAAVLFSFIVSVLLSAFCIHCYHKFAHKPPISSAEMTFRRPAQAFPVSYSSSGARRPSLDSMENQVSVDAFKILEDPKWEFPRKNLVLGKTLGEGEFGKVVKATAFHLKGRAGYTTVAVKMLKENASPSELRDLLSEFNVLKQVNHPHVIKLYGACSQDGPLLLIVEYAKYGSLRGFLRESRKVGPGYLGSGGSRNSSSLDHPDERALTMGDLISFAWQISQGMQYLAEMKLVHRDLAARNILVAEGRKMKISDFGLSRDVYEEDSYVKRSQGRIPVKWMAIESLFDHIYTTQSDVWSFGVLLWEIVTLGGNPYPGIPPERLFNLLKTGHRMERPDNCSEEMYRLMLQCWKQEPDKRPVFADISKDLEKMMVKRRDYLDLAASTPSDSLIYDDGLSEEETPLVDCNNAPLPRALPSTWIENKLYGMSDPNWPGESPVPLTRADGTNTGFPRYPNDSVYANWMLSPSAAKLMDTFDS
T6 sequence (P08631 whole entry): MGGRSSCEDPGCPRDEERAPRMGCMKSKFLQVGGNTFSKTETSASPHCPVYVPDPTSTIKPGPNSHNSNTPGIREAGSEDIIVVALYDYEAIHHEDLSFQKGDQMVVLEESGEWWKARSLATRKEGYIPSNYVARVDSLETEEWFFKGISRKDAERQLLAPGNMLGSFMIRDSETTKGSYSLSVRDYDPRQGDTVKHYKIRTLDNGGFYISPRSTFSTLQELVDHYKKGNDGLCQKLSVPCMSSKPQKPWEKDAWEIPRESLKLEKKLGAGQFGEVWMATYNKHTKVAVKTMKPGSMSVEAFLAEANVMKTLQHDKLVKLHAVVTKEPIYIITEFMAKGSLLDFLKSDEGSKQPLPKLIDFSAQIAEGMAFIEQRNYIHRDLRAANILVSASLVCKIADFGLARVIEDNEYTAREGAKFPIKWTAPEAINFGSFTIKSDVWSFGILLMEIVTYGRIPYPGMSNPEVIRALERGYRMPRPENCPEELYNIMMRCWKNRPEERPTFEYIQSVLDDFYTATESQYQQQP
T11 sequence (P07949 29-1114 V804M): as the sequence (P07949 29-1114) above, with V776M counted along it

IC50 [1]: 1 to 3 nM
GI50 [5]: 211 nM
IC50 [6]: 2 nM
IC50 [7]: 2.6 nM
IC50 [8]: 1 nM
IC50 [9]: 2.7 nM
IC50 [10]: 1.5 nM
IC50 [11]: 1.9 nM
IC50 [12]: 0.7 nM
IC75 ([13]; Experiment 1): 28.8 nM
IC90 ([13]; Experiment 1): 86.4 nM
GI50 ([13]; Experiment 1): 9.6 nM
IC75 ([13]; Experiment 2): 39.9 nM
IC90 ([13]; Experiment 2): 120 nM
GI50 ([13]; Experiment 2): 13.3 nM
IC50 [14]: 8.1 nM
SMILES: C[C@H]1CNC(=O)c2cnn3cc4c(nc23)N(Cc2cc(F)cnc2O1)[C@@H]1CCC[C@@H]1O4 [Compound I, (3aR,11S,20aS)-7-fluoro-11-methyl-2,3,3a,12,13,20a-hexahydro-1H,5H-17,19-(metheno)cyclopenta[5,6][1,4]oxazino[3,4-i]pyrazolo[4,3-f]pyrido[3,2-l][1,4,8,10]oxatriazacyclotridecin-14(11H)-one]
IC50 [2]: 3 nM
IC50 [3]: < 0.5 nM
IC50 [4]: 131 nM
